Results as given in patent publication US20230130102A1, “Na/K-ATPase LIGANDS AND USE THEREOF FOR TREATMENT OF CANCER” (Marshall University Research Corporation, priority 2019, published 2023).

What was measured:
[1] = system: α1 NKA/Src receptor; assay: multi-step assay of MB5 derivatives (NKA and E-cadherin expression, 3D-spheroid invasion); assay type: cell-based; conditions: for potency relative to MB5: ability to restore NKA and E-cadherin expression and 3D-spheroid invasion data
Description: A multi-step assay was further designed to identify which compounds among the MB5 derivatives could be developed as an anti-cancer agent in terms of their potential to stop tumor invasion and growth. This multi-step assay included: (A) an ATPase activity assay- to confirm the binding of derivatives to NKA; (B) an assay to measure inhibition of ouabain-induced ERK activation and NKA endocytosis as well as basal Src/ERK/endocytotic activity in PY-17 cells (NKA/Src inverse agonist); (C) an assay to measure the ability to increase the expression of α1 NKA and E-cadherin level and decrease mesenchymal markers (ZEB1, SNAIL, vimentin) and Myc in cancer cells; (D) a 3D culture to test the anti-invasive and anti-growth potential of spheroids; and (E) an in vivo tumor xenograft model (by transplantation into NOD/SCOD mice). Upon analysis of the results of these experiments, it was believed that some of the MB5 derivative compounds show better or similar properties than MB5 as shown for certain of the compounds in FIGS. 6A-6G. Examples of experiments testing the derivatives are further provided for MIIRMB5 D1 (FIGS. 7A-7B), MIIRMB5 D3 (FIGS. 8A-8C), MIIRMB5 D4 (FIGS. 9A-9C), MIIRMB5 D5 (FIGS. 10A-10C), MIIRMB5 D6 (FIGS. 11A-11C), MIIRMB5 D7 (FIGS. 12A-12B), MIIRMB5 D13 (FIGS. 13A-13C), MIIRMB5 D14 (FIGS. 14A-14C), and MIIRMB5 D15 (FIGS. 15A-15C).

[2] = system: DU145 derived subclones; assay: Western blot / immunostaining of EMT markers, Src/FAK activation and proliferation markers in DU145 derived subclones; assay type: cell-based, human; conditions: subclone 2 cells, PP2 treatment (24 hours)
[3] = molecular target: T1, α1 NKA/Src receptor complex (Sus scrofa, UniProt P05024); assay: ouabain-induced Src/ERK activation in LLC-PK1 cells (immunostaining, Western blot); assay type: cell-based, pig; conditions: baseline
T1 construct: endogenous in cells; host or cells: LLC-PK1
Description: Western blot, Immunoprecipitation and Immunostaining. Cells were grown to 100% confluency and Western blot were performed as described before. Images were quantified with ImageJ software from NIH. Immunoprecipitation studies were performed as described before. α1 NKA immunostaining was performed by growing cells on sterilized coverslips in 6 well tissue culture plates and permeabilization/fixation with ice-cold methanol followed by blocking with 5% horse serum and 0.1% Triton X-100 in 1× Phosphate buffered saline (PBS) for 30 minutes. Coverslips were then stained with an anti-α1 NKA antibody (Millipore, Cat #05-369) at 1:100 dilution in 1% BSA (Bovine Serum Albumin) containing 1×PBS solution for overnight. Next day after three washes, coverslips were stained with Alexa Fluor 488 conjugated anti-mouse secondary antibody (Thermo-Fisher) for 1 hour, washed extensively and then imaged using a fluorescent microscope with GFP filter or confocal microscope (LEICA-DMIRE2). E-cadherin and occludin immunostaining was performed in a similar manner. Phospho-Src, phospho ERK1/2 immunostaining were performed as described before and images were taken with a LEICA DMIRE2 confocal microscope.
Characterization of MB5 activity on the NKA receptor function known as the NKA/Src binary receptor mechanism was conducted in a pig kidney epithelial cells (LLC-PK1)-based platform using immunostaining and Western blot analyses. […] The change of NKA conformation that occurs upon binding of agonists such as ouabain, results in the release and activation of the Src kinase domain from the “Naktide” site of NKA CD3, while the other interaction (constitutive) persists between NKA CD2 and the SH2 domain of Src. […] In LLC-PK1-derived cells with low NKA receptor constitutive activity due to substantial reduction (over 80%) of α1 NKA expression by siRNA (PY17 cells), increased basal Src and ERK activity is observed due to the abnormally high amount of Src kinase that remains in an active conformation. […]

[4] = molecular target: T2, YFP-tagged α1 NKA (Rattus norvegicus, UniProt P06685); assay: ouabain-induced α1 NKA endocytosis in YFP-α1-TCN cells; assay type: cell-based; conditions: TCN-YFP α1 cells
T2 construct: expressed in transfected cells; host or cells: YFP-α1-TCN cells
Description: It is appreciated that ouabain induces Src/ERK activation (increased protein phosphorylation) of LLC-PK1 cells by binding to α1 NKA and thereby initiates a signaling cascade which results in the endocytosis of the α1 NKA to terminate the signaling.
α1 NKA endocytosis assay. Endocytosis assay was performed as described before.
Characterization of MB5 activity on the NKA receptor function known as the NKA/Src binary receptor mechanism was conducted in a pig kidney epithelial cells (LLC-PK1)-based platform using immunostaining and Western blot analyses. […] The change of NKA conformation that occurs upon binding of agonists such as ouabain, results in the release and activation of the Src kinase domain from the “Naktide” site of NKA CD3, while the other interaction (constitutive) persists between NKA CD2 and the SH2 domain of Src.

For `O=c1[nH]c2c(ccc3c(=O)c4cccc(O)c4oc32)o1` [MIIRMB5 D3], the “potency relative to MB5” value [1] was “about 10 fold”.

For `Nc1c(O)ccc2c(=O)c3cccc(O)c3oc12` [MIIRMB5 D4], the “potency relative to MB5” value [1] was “about 10 fold”.

For `O=S1(=O)c2cccc(O)c2Oc2c1ccc(O)c2O` [MIIRMB5 D13], the “effective concentration / dosage” value ([1]; NKA and E-cadherin expression, 3D-spheroid invasion) was “about 100 nM”.

In the case of `CC(C)(C)n1nc(-c2ccc(Cl)cc2)c2c(N)ncnc21` [PP2, reference compound], the E-cadherin expression [2] is reported as “increase in E-cadherin expression”.

In the case of `C[C@@H]1O[C@@H](O[C@H]2C[C@@H](O)[C@]3(CO)[C@H]4[C@H](O)C[C@]5(C)[C@@H](C6=CC(=O)OC6)CC[C@]5(O)[C@@H]4CC[C@]3(O)C2)[C@H](O)[C@H](O)[C@H]1O` [ouabain, reference compound], the “ERK activation / NKA receptor function by the compound alone” value [3] is reported as “activated ERK signal” and the “α1 NKA internalization (endocytosis) by the compound alone” value [4] is reported as “induced α1 NKA internalization (endocytosis)”.
